The numbers were not newly measured in patent US12465589B2, “Method and composition for treating CNS disorders” (IGC Pharma IP, LLC, priority 2018, dated 2025), which cites them from elsewhere.

For data set [1] the following is noted: literature reports.
Data set [2] relates to acetylcholinesterase (AChE). Particulars: THC 50 micromolar.
The next data set has as its target Aβ protein (Homo sapiens, UniProt P05067). Particulars: in vitro.
A further data set deals with AD patients. Conditions: supplementation.

Sequence of Aβ protein (P05067 672-713 limits assumed): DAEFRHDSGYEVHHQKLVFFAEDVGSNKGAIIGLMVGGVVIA

As to `CCCCCc1cc(O)c2c(c1)OC(C)(C)[C@@H]1CCC(C)=C[C@@H]21` [THC, Δ9-tetrahydrocannabinol], in data set [1], the “side effects of ingestion” value is “acute psychotic reactions, anxiety, impaired neuropsychological performance, impaired memory, executive functioning disorder, mitochondrial dysfunction, neuron apoptosis”. Moreover, in data set [2], the “AChE-induced amyloid β-peptide (Aβ) aggregation” value is on record as “prevents” and the “inhibition of acetylcholinesterase (AChE)” value was “competitively inhibits”.

Turning to `COc1cc(/C=C/C(=O)CC(=O)/C=C/c2ccc(O)c(OC)c2)ccc1O` [curcumin], at Aβ protein, the “aggregation of Aβ” value is “prevent the aggregation of Aβ” and the “binding to Aβ protein” value is recorded as “bind to Aβ protein”.

As to `COc1ccc2[nH]cc(CCNC(C)=O)c2c1` [melatonin, N-acetyl-5-methoxytryptamine], in the data set with AD patients, the circadian rhythmicity entry is given as “improve circadian rhythmicity” and the memory entry is on record as “beneficial effects on memory”.
